Patent US8192962B2, “Processes for detecting toxic substances” (Daikin Industries, Ltd., priority 2001, dated 2012)

System: Stress protein genes
Experiment: DNA chip mRNA expression in yeast, stress protein genes (Table 6)
Format: cell-based, Saccharomyces cerevisiae S288C
How it was run: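 Values are treated/untreated fluorescence ratios from a whole-genome yeast DNA chip hybridized over 12 hours at 65° C with Cy3- or Cy5-labelled cDNA from poly(A) mRNA. Log-phase S288C yeast in YPD at 25° C had received a single toxic chemical for two hours, dosed to slow growth without killing.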

Q: With Cl[C@H]1[C@H](Cl)[C@@H](Cl)[C@@H](Cl)[C@H](Cl)[C@H]1Cl [(7), γ-hexachlorocyclohexane] as the molecule, how does the “The level of expressed mRNA in the presence of chemical substance/The level of expressed mRNA in the absence of chemical substance” value (yeast gene YAL005C) read?
A: The value was 1.2.

Q: And the “The level of expressed mRNA in the presence of chemical substance/The level of expressed mRNA in the absence of chemical substance” value (yeast gene YAL015C)?
A: The value was 1.2.

Q: And the “The level of expressed mRNA in the presence of chemical substance/The level of expressed mRNA in the absence of chemical substance” value (yeast gene YBL075C)?
A: Its value is 1.3.

Q: What about the “The level of expressed mRNA in the presence of chemical substance/The level of expressed mRNA in the absence of chemical substance” value (yeast gene YBL093C) of the same molecule?
A: The value was 1.3.

Q: What about the “The level of expressed mRNA in the presence of chemical substance/The level of expressed mRNA in the absence of chemical substance” value (yeast gene YBR044C) of the same molecule?
A: Its value is 1.5.

Q: And the “The level of expressed mRNA in the presence of chemical substance/The level of expressed mRNA in the absence of chemical substance” value (yeast gene YBR054W)?
A: Its value is 0.6.

Q: What about the “The level of expressed mRNA in the presence of chemical substance/The level of expressed mRNA in the absence of chemical substance” value (yeast gene YBR067C) of the same molecule?
A: Its value is 1.1.

Q: What about the “The level of expressed mRNA in the presence of chemical substance/The level of expressed mRNA in the absence of chemical substance” value (yeast gene YBR072W) of the same molecule?
A: The value was 6.6.

Q: What about the “The level of expressed mRNA in the presence of chemical substance/The level of expressed mRNA in the absence of chemical substance” value (yeast gene YBR126C) of the same molecule?
A: Its value is 2.3.

Q: What about the “The level of expressed mRNA in the presence of chemical substance/The level of expressed mRNA in the absence of chemical substance” value (yeast gene YBR169C) of the same molecule?
A: Its value is 2.5.

Q: What about the “The level of expressed mRNA in the presence of chemical substance/The level of expressed mRNA in the absence of chemical substance” value (yeast gene YCL035C) of the same molecule?
A: The value was 2.7.

Q: And the “The level of expressed mRNA in the presence of chemical substance/The level of expressed mRNA in the absence of chemical substance” value (yeast gene YCR021C)?
A: Its value is 0.9.

Q: What about the “The level of expressed mRNA in the presence of chemical substance/The level of expressed mRNA in the absence of chemical substance” value (yeast gene YCR060W) of the same molecule?
A: The value was 2.4.

Q: And the “The level of expressed mRNA in the presence of chemical substance/The level of expressed mRNA in the absence of chemical substance” value (yeast gene YCR083W)?
A: Its value is 1.8.

Q: What about the “The level of expressed mRNA in the presence of chemical substance/The level of expressed mRNA in the absence of chemical substance” value (yeast gene YDL022W) of the same molecule?
A: The value was 1.5.

Q: What about the “The level of expressed mRNA in the presence of chemical substance/The level of expressed mRNA in the absence of chemical substance” value (yeast gene YDL025C) of the same molecule?
A: Its value is 1.0.

Q: And the “The level of expressed mRNA in the presence of chemical substance/The level of expressed mRNA in the absence of chemical substance” value (yeast gene YDR033W)?
A: Its value is 0.8.

Q: And the “The level of expressed mRNA in the presence of chemical substance/The level of expressed mRNA in the absence of chemical substance” value (yeast gene YDR077W)?
A: Its value is 0.7.

Q: What about the “The level of expressed mRNA in the presence of chemical substance/The level of expressed mRNA in the absence of chemical substance” value (yeast gene YDR098C) of the same molecule?
A: Its value is 1.5.

Q: What about the “The level of expressed mRNA in the presence of chemical substance/The level of expressed mRNA in the absence of chemical substance” value (yeast gene YDR155C) of the same molecule?
A: The value was 1.2.

Q: And the “The level of expressed mRNA in the presence of chemical substance/The level of expressed mRNA in the absence of chemical substance” value (yeast gene YDR258C)?
A: Its value is 3.9.

Q: What about the “The level of expressed mRNA in the presence of chemical substance/The level of expressed mRNA in the absence of chemical substance” value (yeast gene YDR293C) of the same molecule?
A: The value was 0.9.

Q: What about the “The level of expressed mRNA in the presence of chemical substance/The level of expressed mRNA in the absence of chemical substance” value (yeast gene YDR436W) of the same molecule?
A: The value was 1.2.

Q: What about the “The level of expressed mRNA in the presence of chemical substance/The level of expressed mRNA in the absence of chemical substance” value (yeast gene YDR513W) of the same molecule?
A: Its value is 1.6.

Q: What about the “The level of expressed mRNA in the presence of chemical substance/The level of expressed mRNA in the absence of chemical substance” value (yeast gene YDR519W) of the same molecule?
A: The value was 1.9.

Q: And the “The level of expressed mRNA in the presence of chemical substance/The level of expressed mRNA in the absence of chemical substance” value (yeast gene YEL030W)?
A: Its value is 0.9.

Q: And the “The level of expressed mRNA in the presence of chemical substance/The level of expressed mRNA in the absence of chemical substance” value (yeast gene YEL039C)?
A: Its value is 0.6.

Q: What about the “The level of expressed mRNA in the presence of chemical substance/The level of expressed mRNA in the absence of chemical substance” value (yeast gene YER042W) of the same molecule?
A: Its value is 1.1.

Q: What about the “The level of expressed mRNA in the presence of chemical substance/The level of expressed mRNA in the absence of chemical substance” value (yeast gene YER057C) of the same molecule?
A: Its value is 1.4.

Q: And the “The level of expressed mRNA in the presence of chemical substance/The level of expressed mRNA in the absence of chemical substance” value (yeast gene YER103W)?
A: Its value is 1.0.

Q: What about the “The level of expressed mRNA in the presence of chemical substance/The level of expressed mRNA in the absence of chemical substance” value (yeast gene YER125W) of the same molecule?
A: Its value is 0.8.

Q: What about the “The level of expressed mRNA in the presence of chemical substance/The level of expressed mRNA in the absence of chemical substance” value (yeast gene YFL014W) of the same molecule?
A: The value was 5.5.

Q: And the “The level of expressed mRNA in the presence of chemical substance/The level of expressed mRNA in the absence of chemical substance” value (yeast gene YFL016C)?
A: The value was 1.4.

Q: And the “The level of expressed mRNA in the presence of chemical substance/The level of expressed mRNA in the absence of chemical substance” value (yeast gene YFL020C)?
A: The value was 1.4.

Q: And the “The level of expressed mRNA in the presence of chemical substance/The level of expressed mRNA in the absence of chemical substance” value (yeast gene YFR052W)?
A: Its value is 2.2.

Q: What about the “The level of expressed mRNA in the presence of chemical substance/The level of expressed mRNA in the absence of chemical substance” value (yeast gene YGL073W) of the same molecule?
A: Its value is 1.3.

Q: And the “The level of expressed mRNA in the presence of chemical substance/The level of expressed mRNA in the absence of chemical substance” value (yeast gene YGL115W)?
A: Its value is 1.4.

Q: And the “The level of expressed mRNA in the presence of chemical substance/The level of expressed mRNA in the absence of chemical substance” value (yeast gene YGL181W)?
A: The value was 1.3.

Q: What about the “The level of expressed mRNA in the presence of chemical substance/The level of expressed mRNA in the absence of chemical substance” value (yeast gene YGR088W) of the same molecule?
A: The value was 0.8.

Q: And the “The level of expressed mRNA in the presence of chemical substance/The level of expressed mRNA in the absence of chemical substance” value (yeast gene YHL028W)?
A: The value was 2.1.

Q: And the “The level of expressed mRNA in the presence of chemical substance/The level of expressed mRNA in the absence of chemical substance” value (yeast gene YHL046C)?
A: Its value is 1.3.

Q: And the “The level of expressed mRNA in the presence of chemical substance/The level of expressed mRNA in the absence of chemical substance” value (yeast gene YHR030C)?
A: The value was 1.8.

Q: And the “The level of expressed mRNA in the presence of chemical substance/The level of expressed mRNA in the absence of chemical substance” value (yeast gene YHR057C)?
A: The value was 1.3.

Q: What about the “The level of expressed mRNA in the presence of chemical substance/The level of expressed mRNA in the absence of chemical substance” value (yeast gene YHR104W) of the same molecule?
A: The value was 1.5.

Q: And the “The level of expressed mRNA in the presence of chemical substance/The level of expressed mRNA in the absence of chemical substance” value (yeast gene YIL011W)?
A: The value was 0.6.
